From patent US11555820B2, “Nanohoop compounds for use in biotechnology and methods of making and using the same” (University of Oregon, priority 2017, dated 2023)

Assays:
[1] = Photophysical properties of meta-substituted nanohoops (absorption, emission, extinction coefficient, quantum yield); format: physicochemical; details: for εAmax × ΦAmax (brightness) / εH→L: [n]mCPP; for Emission / Max Abs / ΦAmax (fluorescence quantum yield) / εAmax: dichloromethane; for ΦAmax (fluorescence quantum yield): room temperature; for εAmax: extinction coefficient at the absorbance maximum; for εH→L: extinction coefficient of the HOMO→LUMO transition; for CPP ε × Φ (brightness): all-para [n]CPP with the same number of rings
Procedure: In the following examples, all glassware was flame dried and cooled under an inert atmosphere of nitrogen unless otherwise noted. Moisture sensitive reactions were carried out under nitrogen atmosphere using Schlenk and standard syringe/septa techniques. Tetrahydrofuran, dichloromethane, dimethylformamide and 1,4-dioxane were dried by filtration through alumina according to the methods describes by Grubbs. Silica column chromatography was conducted with Zeochem Zeoprep 60 Eco 40-63 μm silica gel. Automated flash chromatography was performed using a Biotage Isolera One. Recycling gel permeation chromatography (GPC) was performed using a Japan Analytical Industry LC-9101 preparative HPLC with JAIGEL-1H/JAIGEL-2H columns in series using CHCl3. Thin Layer Chromatography (TLC) was performed using Sorbent Technologies Silica Gel XHT TLC plates. Developed plates were visualized using UV light at wavelengths of 254 and 365 nm. ^1H NMR spectra were recorded at 500 MHz or 600 MHz on a Bruker Advance-II-HD NMR spectrometer. ^13C NMR spectra were recorded 150 MHz on a Bruker Advance-III-HD NMR spectrometer. All ^1H NMR spectra were taken in CDCl3 (referenced to TMS, δ 0.00 ppm) or DMSO-d6 (referenced to residual DMSO, δ 2.50 ppm). All ^13C NMR spectra were taken in CDCl3 (referenced to chloroform, δ 77.16 ppm) or DMSO-d6 (referenced to DMSO, δ 39.52 ppm). Absorbance and fluorescence spectra were obtained in a 1 cm Quartz cuvette with dichloromethane using an Agilent Cary 100 UV-Vis spectrometer and a Horiba Jobin Yvon Fluoromax-4 Fluorimeter. Fluorescent quantum yield was measured in dichloromethane at room temperature using a Hamamatsu absolute PL quantum yield measurement system. Electrochemical experiments were performed using a Biologic SP-50 potentiostat with a Ag wire reference electrode, Pt wire counter electrode, and glassy carbon working electrode under nitrogen atmosphere in 100 mM solutions of Bu4NPF6 in DCM with ferrocene as a reference. All reagents were obtained commercially unless otherwise noted. Compounds para-benzoquinone mono-methyl ketal, compound A, compound B, PPh3 Pd Gen III, and SPhos Pd Gen 1115 were prepared according to literature procedure.
In this example, the photophysical properties of nanohoop compound embodiments comprising meta-substitution (wherein the meta-substitution refers to the fact that one of the rings of the nanohoop skeleton is connected to other rings of the nanohoop skeleton via bonds that are meta-substituted relative to each other) was evaluated. It was determined that disrupting the conjugation of the nanohoop allows the HOMO→LUMO absorption and “turns on” the fluorescence in the smaller sizes (e.g., 6-membered and 5-membered nanohoops). The absorption and emission data as well as extinction coefficients and quantum yields were collected. […] Two absorption transitions can be seen in for the smaller sizes, but the second transition blue-shifts and overlaps with the absorption at 328 nm for [10]- and [12]mCPP. The extinction coefficient of the higher energy transition is larger than that of the lower energy transition in all cases (Table 10). […] Graphs showing the extinction coefficient determination of [5]mCPP at the absorbance maxima and HOMO→LUMO transition are provided in FIGS. 10A and 10B, respectively. Graphs showing the extinction coefficient determination of [6]mCPP at the absorbance maxima and HOMO→LUMO transition are provided in FIGS. 11A and 11B, respectively. Graphs showing the extinction coefficient determination of [7]mCPP at the absorbance maxima and HOMO→LUMO transition are provided in FIGS. 12A and 12B, respectively. Graphs showing the extinction coefficient determination of [8]mCPP at the absorbance maxima and HOMO→LUMO transition are provided in FIGS. 13A and 13B, respectively. Graphs showing the extinction coefficient determination of [10]mCPP and [12]mCPP at the absorbance maxima are provided in FIGS. 14 and 15, respectively. […]

[2] = all-para [n]CPP, n≤7; cited from earlier work
[3] = tested on: HeLa cells; assay: Colorimetric CCK-8 viability assay of HeLa cells; format: cell-based; details: [12]CPP 0.25-1 uM, [8]CPP 0.5-2 uM, 5 wt percent Pluronic F108 in DMEM
Procedure: HeLa cells were treated with varying concentrations of [8]CPP and [12]CPP in the presence of 5 wt percent Pluronic F108 in DMEM, and their viability was measured using a colorimetric CCK-8 assay (purchased from Dojindo and performed following the assay instructions). Briefly, the cells were treated with the nanohoop compound and the tetrazolium salt WST-8 at each concentration for 2 hours at 37 degrees Celsius, and the optical density of the cells was subsequently measured at 450 nm. The viability of cells treated with the [12]CPP and [8]CPP compounds is illustrated in FIGS. 1 and 2, respectively.
In this example, HeLa cells were treated with the disulfonated[8]CPP nanohoop Compound 1 at concentrations of 5 uM, 10 uM, 25 uM, 50 uM and 100 uM and their viability was measured using a standard colorimetric CCK-8 assay, as described above for Example 1. The percentage of living cells remaining after exposure to various concentrations of Compound 1 is illustrated in the graph shown in FIG. 3.

| Compound | H→L Absorbance ([1]; HOMO→LUMO transition) [nm] | εAmax × ΦAmax (brightness) [1] | Emission [1] [nm] | Max Abs [1] [nm] | ΦAmax (fluorescence quantum yield) [1] | εAmax [1] | εH→L [1] | CPP ε × Φ (brightness) [1] | fluorescence of para-substituted CPP (in words) [2] | other results |
| --- | --- | --- | --- | --- | --- | --- | --- | --- | --- | --- |
| O[C@]12C=C[C@](O)(CC1)c1ccc(cc1)-c1ccc(cc1)[C@]1(O)C=C[C@@H](C=C1)c1ccc(cc1)-c1cccc(c1)-c1ccc2cc1 [[7]mCPP] | 394 | 2.3 × 10^4 | 491 | 328 | 0.450 | 5.1 × 10^4 ± 0.09 M^−1cm^−1 | 9.9 × 10^3 ± 0.08 M^−1cm^−1 |  |  |  |
| c1cc2ccc1=c1ccc(cc1)=c1ccc(cc1)=c1ccc(cc1)=c1ccc=2cc1 [[5]CPP, reference compound] |  |  |  |  |  |  |  | 0 | no fluorescence | absorption (extinction coefficient) compared with [5]mCPP ([1]; all-para [5]CPP, HOMO→LUMO transition): 450 M⁻¹ cm⁻¹ |
| c1cc2ccc1=c1ccc(cc1)=c1ccc(cc1)=c1ccc(cc1)=c1ccc(cc1)=c1ccc=2cc1 [[6]CPP, reference compound] |  |  |  |  |  |  |  | 0 | no fluorescence |  |
| c1cc2ccc1-c1ccc(cc1)-c1ccc(cc1)-c1ccc(cc1)-c1ccc(cc1)-c1ccc(cc1)-c1ccc(cc1)-c1ccc(cc1)-c1ccc(cc1)-c1ccc(cc1)-c1ccc(cc1)-c1ccc-2cc1 [[12]CPP, reference compound] |  |  |  |  |  |  |  | 1.4 × 10^5 |  | toxicity to HeLa cells (in words) [3]: not toxic |
| c1cc2ccc1-c1ccc(cc1)-c1ccc(cc1)-c1ccc(cc1)-c1ccc(cc1)-c1ccc(cc1)-c1ccc-2cc1 [[7]CPP, reference compound] |  |  |  |  |  |  |  | 4.8 × 10^2 | only weak fluorescence |  |
| c1cc2ccc1-c1ccc(cc1)-c1ccc(cc1)-c1ccc(cc1)-c1ccc(cc1)-c1ccc(cc1)-c1ccc(cc1)-c1ccc(cc1)-c1ccc(cc1)-c1ccc-2cc1 [[10]CPP, reference compound] |  |  |  |  |  |  |  | 8.5 × 10^4 |  |  |
| CO[C@]12C=C[C@](O)(C=C1)c1ccc(cc1)-c1cccc(c1)-c1ccc(cc1)[C@]1(O)C=C[C@@](OC)(C=C1)C1C=CC(=CC1)[C@]1(O)C=C[C@@](O)(CC1)[C@H]1C=CC2=CC1 [[8]mCPP] | 376 | 3.7 × 10^4 | 484 | 326 | 0.595 | 6.2 × 10^4 ± 0.9 M^−1cm^−1 | 1.4 × 10^4 ± 0.1 M^−1cm^−1 |  |  |  |
| O[C@]12C=C[C@](O)(C=C1)c1ccc(cc1)[C@]1(O)C=C[C@@](O)(C=C1)c1ccc(cc1)-c1cccc(c1)[C@@H]1C=CC2=CC1 [[6]mCPP] | 410 | 1.2 × 10^4 | 510 | 328 | 0.224 | 5.4 × 10^4 ± 0.3 M^−1cm^−1 | 9.4 × 10^3 ± 0.5 M^−1cm^−1 |  |  |  |
| c1cc2cc(c1)-c1ccc(cc1)-c1ccc(cc1)-c1ccc(cc1)-c1ccc(cc1)-c1ccc(cc1)-c1ccc(cc1)-c1ccc(cc1)-c1ccc(cc1)-c1ccc-2cc1 [[10]mCPP] |  | 5.2 × 10^4 | 456 | 328 | 0.726 | 7.1 × 10^4 ± 0.2 M^−1cm^−1 |  |  |  | overall brightness versus commercial fluorophores (in words) ([1]; compared with DAPI and Rhodamine 110): brighter than many commercial fluorophores |
| c1cc2ccc1=c1ccc(cc1)=c1ccc(cc1)=c1ccc(cc1)=c1ccc(cc1)=c1ccc(cc1)=c1ccc(cc1)=c1ccc=2cc1 [[8]CPP, reference compound] |  |  |  |  |  |  |  | 1.0 × 10^4 |  | toxicity to HeLa cells (in words) [3]: not toxic |
